Results as given in patent US20240317764A1, “SALTS AND SOLID FORMS OF A COMPOUND HAVING APJ RECEPTOR ACTIVITY” (Annapurna Bio, Inc., priority 2022, published 2024).
≈ marks a conversion by molar mass, not a printed value. Entries after “also recorded” stand apart in the source; their conditions may differ. Where a name gives a salt, the structure may show the parent alone.

Tests used:
[1] = Hygroscopicity by DVS at 25° C. between 0% RH and 95% RH, XRPD after DVS; assay type: physicochemical; details: for Water uptake (25° C./80% RH): DVS; for Form change after DVS: XRPD after DVS test; for Water uptake, comparison between forms (in words): DVS at 25° C., 0% RH to 95% RH
Procedure: DVS was measured via a SMS (Surface Measurement Systems) DVS Intrinsic. The relative humidity at 25° C. were calibrated against deliquescence point of LiCl, Mg(NO3)2 and KCl.
In order to evaluate the hygroscopicity of Compound I free acid Form A and re-prepared salt forms, DVS isotherm plots were collected at 25° C. between 0% RH and 95% RH. XRPD characterization was performed for the samples after DVS test.

[2] = Solid stability, 54 and 91 days (XRPD and HPLC purity); assay type: physicochemical; details: 25° C./60% RH or 40° C./75% RH
Description: (§1) The re-prepared choline salt Form A was used for evaluation, including solubility and solid stability. Free acid Form A was selected as comparison for pH solubility and solid stability evaluation.

[3] = pH buffers
Description: as §1

[4] = Dog pharmacokinetic study after oral administration, plasma by LC-MS/MS; assay type: in vivo, male Beagle dogs; details: for Cmax / AUC(0-t) / Tmax: male, Beagle, 30 mg/kg; for Cmax / AUC(0-t): mean; for Cmax: plasma Compound I; for AUC(0-t): t = 24 h; for Tmax: median value or range
Procedure: The objective of this study was to characterize the pharmacokinetics (PK) of Compound I in male Beagle dogs after oral (P0) administration. The P0 formulation was prepared in capsule or prepared in 0.50% or […] (methyl cellulose) in water at a concentration of 6 mg/mL for oral administration at 30 mg/kg.
LC-MS/MS for the PK studies was carried out using the following instruments/conditions.
Compound I Free acid Form A and Compound I choline salt Form A were formulated as an oral suspension at a target dose concentration of 6 mg/mL in 0.500 or 1% MC in water.
The dose was administered orally by gavage at a target dose volume of 5 mL/kg. Compound I choline salt Form A was also formulated as an oral capsule at a target dose concentration of 30 mg/kg. The formulation was prepared on the day of dosing and stored at room temperature prior to administration. The dose was administered orally by gavage to dogs. Following oral administration, blood samples were collected from […] at pre-dose, 0.083, 0.25, 0.5, 1, 2, 4, 8 and 24 h post dose.
The plasma concentration of Compound I was determined by liquid chromatography with mass spectrometric detection (LC-MS/MS).

[5] = physchem; details: thermodynamic from solid
Procedure: The solubility of starting material (Compound I choline salt Form A) was estimated at room temperature (RT, ˜26° C.). Specifically, approximate 2 mg solid was added into HPLC glass vials. Solvents in Table 5-2 were then added stepwise (50/50/200/700 μL) into the vials until the solids were dissolved or a total volume of 1.0 mL was reached.

[6] = Approximate solubility of Compound I free acid Form A in 14 solvents at RT; assay type: physicochemical
Procedure: Approximate solubility of starting material (Compound I free acid Form A) was determined in 14 solvents at RT. Approximately 2 mg of sample was added into a 3-mL glass vial. Solvents in Table 1-3 were then added stepwise into the vials until the solids were dissolved visually or a total volume of 2 mL was reached. Solubility results summarized in Table 1-1 were used to guide the solvent selection in screening experiment design.

[7] = compared to Compound I choline salt Form A

CCOc1cccc(-c2nc3ncc([N-]S(C)(=O)=O)nc3n2-c2c(OC)cccc2OC)n1.[Na+] [Compound I sodium salt Form A, N-(1-(2,6-dimethoxyphenyl)-2-(6-ethoxypyridin-2-yl)-1H-imidazo[4,5-b]pyrazin-6-yl)methanesulfonamide sodium salt Form A]
Water uptake (25° C./80% RH) [1]: 1.13% | Form change after DVS ([1]; listed as Compound I Na salt Form A): converted to a new form after DVS test; also recorded: form change was observed after DVS | Form change after DVS ([1]; listed as Na salt Form A): Yes* | Hygroscopicity (in words) [1, 7]: exhibited hygroscopicity | Stability after exposure to high humidity (in words) [1, 7]: less stable after exposed to high humidity

CCOc1cccc(-c2nc3ncc([N-]S(C)(=O)=O)nc3n2-c2c(OC)cccc2OC)n1.[K+] [Compound I potassium salt Form A, N-(1-(2,6-dimethoxyphenyl)-2-(6-ethoxypyridin-2-yl)-1H-imidazo[4,5-b]pyrazin-6-yl)methanesulfonamide potassium salt Form A]
Water uptake, comparison between forms (in words) [1]: No significant difference | Water uptake (25° C./80% RH) [1]: 3.71% | Form change after DVS [1]: No

CCOc1cccc(-c2nc3ncc(NS(C)(=O)=O)nc3n2-c2c(OC)cccc2OC)n1 [Compound I choline salt Form A, N-(1-(2,6-dimethoxyphenyl)-2-(6-ethoxypyridin-2-yl)-1H-imidazo[4,5-b]pyrazin-6-yl)methanesulfonamide choline salt Form A]
Solid stability: form change (XRPD) and HPLC purity [2]: no form change or obvious HPLC purity decrease; also recorded: physically/chemically stable | Solid stability: form change (XRPD) and HPLC purity ([2]; listed as choline salt Form A): no form change or obvious HPLC purity decrease; also recorded: physically/chemically stable | Water uptake, comparison between forms (in words) [1]: No significant difference | Water uptake (25° C./80% RH) [1]: 3.85% | Form change after DVS [1]: No | pH solubility compared with free acid Form A [3]: higher solubility than free acid Form A | Cmax ([4]; plasma, po, capsule): 11900 ng/mL | AUC(0-t) ([4]; plasma, po, capsule): 145 µg·h/mL | Cmax ([4]; plasma, po, suspension): 73800 ng/mL | AUC(0-t) ([4]; plasma, po, suspension): 1120 µg·h/mL | Tmax ([4]; plasma, po, suspension): 2 to 4 h | Pharmacokinetic profile (in words) ([4]; suspension and capsule): excellent pharmacokinetic profiles | Mean AUClast and Cmax compared with free acid Form A suspension ([4]; suspension or capsule): greater than that of Compound I free acid Form A | Solubility in certain non-polar solvents (in words) (IPA, acetone, MEK, MIBK, ethyl acetate, isopropyl acetate, MTBE, THF, 2-MeTHF, CHCl3, n-heptane, toluene, DCM, 1,4-dioxane): less soluble | Solubility in polar solvents (in words) (methanol, DMSO, and water): good solubility | solubility ([5]; 1,4-Dioxane, 26 °C, organic solvent or mixture): < 2100 µg/mL | solubility ([5]; 2-Butanol, 26 °C, organic solvent or mixture): < 1800 µg/mL | solubility ([5]; 2-MeTHF, 26 °C, organic solvent or mixture): < 1800 µg/mL | solubility ([5]; ACN, 26 °C, organic solvent or mixture): 7100 to 21400 µg/mL | solubility ([5]; ACN/IPAc (1:1), 26 °C, organic solvent or mixture): < 2100 µg/mL | solubility ([5]; ACN/IPAc (9:1), 26 °C, organic solvent or mixture): 2200 to 7300 µg/mL | solubility ([5]; ACN/Toluene (1:1), 26 °C, organic solvent or mixture): 2100 to 7000 µg/mL | solubility ([5]; ACN/Toluene (9:1), 26 °C, organic solvent or mixture): 6300 to 18800 µg/mL | solubility ([5]; Acetone/H2O (19:1), 26 °C, organic solvent or mixture): 7200 to 21600 µg/mL | solubility ([5]; CHCl3, 26 °C, organic solvent or mixture): < 2100 µg/mL | solubility ([5]; CPME, 26 °C, organic solvent or mixture): < 1800 µg/mL | solubility ([5]; DCM, 26 °C, organic solvent or mixture): < 2100 µg/mL | solubility ([5]; DMF, 26 °C, organic solvent or mixture): 20200 to 40400 µg/mL | solubility ([5]; DMSO, 26 °C, organic solvent or mixture): 18800 to 37600 µg/mL | solubility ([5]; EtOAc, 26 °C, organic solvent or mixture): < 1700 µg/mL | solubility ([5]; EtOH, 26 °C, organic solvent or mixture): 6800 to 20500 µg/mL | solubility ([5]; EtOH/H2O (19:1), 26 °C, organic solvent or mixture): 6600 to 19900 µg/mL | solubility ([5]; IPA/ACN (1:1), 26 °C, organic solvent or mixture): 7000 to 21000 µg/mL | solubility ([5]; IPAc, 26 °C, organic solvent or mixture): < 2000 µg/mL | solubility ([5]; MEK, 26 °C, organic solvent or mixture): < 2000 µg/mL | solubility ([5]; MIBK, 26 °C, organic solvent or mixture): < 2300 µg/mL | solubility ([5]; MTBE, 26 °C, organic solvent or mixture): < 2100 µg/mL | solubility ([5]; MeOH/DCM (1:1), 26 °C, organic solvent or mixture): > 39600 µg/mL | solubility ([5]; MeOH/DCM (1:9), 26 °C, organic solvent or mixture): > 40800 µg/mL | solubility ([5]; MeOH/DCM (1:19), 26 °C, organic solvent or mixture): > 38600 µg/mL | solubility ([5]; THF, 26 °C, organic solvent or mixture): < 1800 µg/mL | solubility ([5]; THF/H2O (19:1), 26 °C, organic solvent or mixture): > 40400 µg/mL | solubility ([5]; acetone, 26 °C, organic solvent or mixture): < 2400 µg/mL | solubility ([5]; isopropanol (IPA), 26 °C, organic solvent or mixture): < 2200 µg/mL | solubility ([5]; methanol, 26 °C, organic solvent or mixture): > 45200 µg/mL | solubility ([5]; n-heptane, 26 °C, organic solvent or mixture): < 2100 µg/mL | solubility ([5]; toluene, 26 °C, organic solvent or mixture): < 2200 µg/mL | solubility ([5]; water, 26 °C): > 43000 µg/mL

CCOc1cccc(-c2nc3ncc(NS(C)(=O)=O)nc3n2-c2c(OC)cccc2OC)n1 [Compound I free acid Form A, N-(1-(2,6-dimethoxyphenyl)-2-(6-ethoxypyridin-2-yl)-1H-imidazo[4,5-b]pyrazin-6-yl)methanesulfonamide]
Solid stability: form change (XRPD) and HPLC purity [2]: no form change or obvious HPLC purity decrease | Water uptake, comparison between forms (in words) [1]: lowest water uptake | Water uptake, comparison between forms (in words) ([1]; listed as free acid Form A): lowest water uptake | Water uptake (25° C./80% RH) [1]: 0.03% | Form change after DVS [1]: No | AUC(0-t) ([4]; plasma, suspension): 13.8 µg·h/mL | Tmax ([4]; plasma, suspension): 4 h | Cmax ([4]; suspension): 983 ng/mL | solubility ([6]; organic solvent or mixture, thermodynamic from solid, 1,4-dioxane): 2000 to 5000 µg/mL (≈ 4.25 to 10.6 mM) | solubility ([6]; organic solvent or mixture, thermodynamic from solid, 2-MeTHF): < 1000 µg/mL | solubility ([6]; organic solvent or mixture, thermodynamic from solid, ACN): 2000 to 5000 µg/mL (≈ 4.25 to 10.6 mM) | solubility ([6]; organic solvent or mixture, thermodynamic from solid, DCM): 5300 to 10500 µg/mL (≈ 11.3 to 22.3 mM) | solubility ([6]; organic solvent or mixture, thermodynamic from solid, EtOAc): < 1000 µg/mL | solubility ([6]; organic solvent or mixture, thermodynamic from solid, EtOH): < 1100 µg/mL | solubility ([6]; organic solvent or mixture, thermodynamic from solid, IPA): < 900 µg/mL | solubility ([6]; organic solvent or mixture, thermodynamic from solid, MTBE): < 900 µg/mL | solubility ([6]; organic solvent or mixture, thermodynamic from solid, MeOH): 1000 to 2100 µg/mL (≈ 2.13 to 4.46 mM) | solubility ([6]; organic solvent or mixture, thermodynamic from solid, THF): 9000 to 18000 µg/mL (≈ 19.1 to 38.3 mM) | solubility ([6]; organic solvent or mixture, thermodynamic from solid, acetone): 2100 to 5200 µg/mL (≈ 4.46 to 11.1 mM) | solubility ([6]; organic solvent or mixture, thermodynamic from solid, n-heptane): < 1300 µg/mL | solubility ([6]; organic solvent or mixture, thermodynamic from solid, toluene): < 800 µg/mL | solubility ([6]; water, thermodynamic from solid, H2O): < 1200 µg/mL
